Measured values as given in article PMC9354042, “Discovery of BRAF/HDAC Dual Inhibitors Suppressing Proliferation of Human Colorectal Cancer Cells” (Frontiers in Chemistry, 2022).

Legend:
BRAF^V600E = target: T1, BRAF^V600E (Homo sapiens, UniProt P15056, V600E); assay: BRAF V600E enzymatic activity, FRET-based Z'-Lyte kinase assay; type: biochemical
T1 construct: purchased Invitrogen
Experimental: (§1) The experiments were performed according to the instructions of the manufacturer. […] For each assay, 10 μl kinase reactions were added to 384-well plate, mixed thoroughly, and incubated for 1 hour at room temperature. Then, a 5 μl development solution was added to each well and the plate was incubated for another 1 h at room temperature. Then, a 5 μl stop reagent was loaded to stop the reaction. For the control setting, a 5 μl phospho-peptide solution instead of kinase/peptide mixture was used as 100% phosphorylation control. […] The plate was measured on an EnVision Multilabel Reader (Perkin-Elmer). Curve fitting and data presentations were performed using GraphPad Prism, version 5.0. Every experiment was repeated at least two times.

BRAF (wild-type) [1] = target: T2, BRAF (wild-type) (Homo sapiens, UniProt P15056); assay: wild-type BRAF enzymatic activity, Z'-Lyte kinase assay; type: biochemical; conditions: wild-type BRAF kinase; read-out: BRAF^wt enzymatic IC50
T2 construct: purchased Invitrogen
T2 sequence (P15056 whole entry): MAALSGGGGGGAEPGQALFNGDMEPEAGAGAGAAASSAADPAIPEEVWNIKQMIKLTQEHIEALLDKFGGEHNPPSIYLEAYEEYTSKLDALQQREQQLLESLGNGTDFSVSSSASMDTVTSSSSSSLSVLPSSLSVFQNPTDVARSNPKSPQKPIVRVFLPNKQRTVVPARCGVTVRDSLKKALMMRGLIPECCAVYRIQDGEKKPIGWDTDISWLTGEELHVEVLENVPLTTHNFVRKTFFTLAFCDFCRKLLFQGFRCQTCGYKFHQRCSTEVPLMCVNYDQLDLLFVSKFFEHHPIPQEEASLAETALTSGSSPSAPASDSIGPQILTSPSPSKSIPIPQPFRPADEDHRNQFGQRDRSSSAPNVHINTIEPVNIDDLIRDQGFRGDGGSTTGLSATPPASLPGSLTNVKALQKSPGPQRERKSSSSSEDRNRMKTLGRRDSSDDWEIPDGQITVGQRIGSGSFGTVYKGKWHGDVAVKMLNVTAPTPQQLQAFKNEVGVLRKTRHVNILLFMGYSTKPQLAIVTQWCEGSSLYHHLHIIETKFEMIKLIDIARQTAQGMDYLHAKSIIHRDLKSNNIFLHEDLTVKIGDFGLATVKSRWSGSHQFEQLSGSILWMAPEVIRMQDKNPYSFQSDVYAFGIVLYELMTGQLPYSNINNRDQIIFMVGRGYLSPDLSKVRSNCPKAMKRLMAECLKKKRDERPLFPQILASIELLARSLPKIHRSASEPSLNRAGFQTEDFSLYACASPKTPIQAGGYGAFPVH
Experimental: as §1

BRAF (wild-type) [2] = assay: as above; type: biochemical; conditions: ratio of enzymatic IC50
Experimental: as §1

HDAC1 = target: T3, HDAC1 (Homo sapiens, UniProt Q13547); assay: HDAC1 fluorescent-based enzymatic activity assay; type: biochemical; conditions: Table 1; read-out: Enzymatic IC50 HDAC1
T3 construct: purchased BPS Bioscience
T3 sequence (Q13547 whole entry): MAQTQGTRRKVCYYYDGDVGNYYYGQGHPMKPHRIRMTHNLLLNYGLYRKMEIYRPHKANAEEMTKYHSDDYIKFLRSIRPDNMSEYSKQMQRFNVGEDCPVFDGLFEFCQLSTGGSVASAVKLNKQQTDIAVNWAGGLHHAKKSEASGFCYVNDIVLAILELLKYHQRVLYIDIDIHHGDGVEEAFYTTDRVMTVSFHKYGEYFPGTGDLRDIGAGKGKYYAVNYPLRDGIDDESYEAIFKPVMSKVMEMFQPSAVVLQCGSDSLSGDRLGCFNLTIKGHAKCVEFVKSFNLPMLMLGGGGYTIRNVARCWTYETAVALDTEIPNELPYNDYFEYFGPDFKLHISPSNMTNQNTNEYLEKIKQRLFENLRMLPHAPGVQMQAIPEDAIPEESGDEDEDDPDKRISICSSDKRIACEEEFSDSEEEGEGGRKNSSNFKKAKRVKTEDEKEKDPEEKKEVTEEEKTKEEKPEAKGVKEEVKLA
Experimental: (§2) The purified recombinant Human HDACs and their corresponding substrates were purchased from BPS Bioscience (BPS Bioscience Inc., United States). The assays were carried out in a 384-well format using the BPS fluorescent–based HDAC activity assay according to the manufacturer’s protocol. In brief, […] of the HDAC reaction mixture was composed of HDAC assay buffer, […] BSA, serial diluted test compounds, appropriate concentration of HDACs, and […] fluorogenic substrate, the mixture was incubated at 37°C for 60 min, and then stopped by the addition of developer containing trypsin and TSA. After 20 min of incubation, the fluorescence was detected at the excitation wavelength of 360 nm and the emission wavelength of 460 nm using the EnVision Multilabel Reader (PerkinElmer Inc., United States). The analytical software, GraphPad Prism 5.0 (GraphPad Software, Inc., United States) was used to generate IC50 value via non-linear regression analysis.

HDAC6 = target: T4, HDAC6 (Homo sapiens, UniProt Q9UBN7); assay: HDAC6 fluorescent-based enzymatic activity assay; type: biochemical; conditions: Table 1; read-out: Enzymatic IC50 HDAC6
T4 construct: purchased BPS Bioscience
T4 sequence (Q9UBN7 1-1215): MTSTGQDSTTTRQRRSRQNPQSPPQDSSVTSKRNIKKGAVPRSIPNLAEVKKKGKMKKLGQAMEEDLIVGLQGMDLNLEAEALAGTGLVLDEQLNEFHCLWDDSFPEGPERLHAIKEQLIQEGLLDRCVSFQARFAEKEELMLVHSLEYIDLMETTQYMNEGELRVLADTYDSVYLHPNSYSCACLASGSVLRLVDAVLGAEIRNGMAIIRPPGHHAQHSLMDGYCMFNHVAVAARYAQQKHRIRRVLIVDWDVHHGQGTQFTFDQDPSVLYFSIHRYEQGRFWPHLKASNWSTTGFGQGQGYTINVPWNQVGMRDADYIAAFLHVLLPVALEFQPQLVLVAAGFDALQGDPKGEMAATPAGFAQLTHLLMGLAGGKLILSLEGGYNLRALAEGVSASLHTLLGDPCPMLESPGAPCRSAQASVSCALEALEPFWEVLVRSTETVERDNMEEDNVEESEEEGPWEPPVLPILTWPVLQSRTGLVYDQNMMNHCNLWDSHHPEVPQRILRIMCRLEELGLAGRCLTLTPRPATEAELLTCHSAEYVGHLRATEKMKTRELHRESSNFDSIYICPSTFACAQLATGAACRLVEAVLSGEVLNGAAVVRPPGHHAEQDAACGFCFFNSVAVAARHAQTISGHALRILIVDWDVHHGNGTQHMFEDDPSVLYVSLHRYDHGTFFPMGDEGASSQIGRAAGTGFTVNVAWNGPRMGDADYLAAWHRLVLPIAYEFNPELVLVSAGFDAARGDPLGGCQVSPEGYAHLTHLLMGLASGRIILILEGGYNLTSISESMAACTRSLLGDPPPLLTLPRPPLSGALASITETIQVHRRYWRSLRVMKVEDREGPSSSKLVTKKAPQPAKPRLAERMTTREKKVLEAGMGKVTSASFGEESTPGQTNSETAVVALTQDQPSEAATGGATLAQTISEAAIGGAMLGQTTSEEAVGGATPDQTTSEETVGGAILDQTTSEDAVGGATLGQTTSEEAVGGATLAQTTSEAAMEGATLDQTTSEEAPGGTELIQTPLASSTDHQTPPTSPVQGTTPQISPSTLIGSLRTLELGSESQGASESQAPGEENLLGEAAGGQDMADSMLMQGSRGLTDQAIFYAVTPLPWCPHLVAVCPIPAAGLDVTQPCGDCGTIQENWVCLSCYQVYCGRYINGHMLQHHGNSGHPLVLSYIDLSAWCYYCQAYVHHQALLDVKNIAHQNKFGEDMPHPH
Experimental: as §2

HCT116 cells = assay: Antiproliferation CCK-8 assay, HCT116; type: cell-based; conditions: Homo sapiens, HCT-116; CCK-8, 72 h, HCT116 (wild-type BRAF); means of three independent experiments; read-out: Cellular IC50 HCT116
Experimental: (§3) HCT116 and HT-29 cells were obtained from the Shanghai Cell Bank (Type Culture Collection (TCC), Chinese Academy of Sciences) and cultured in DMEM (10–013-CVR, corning) supplemented with 10% fetal bovine serum (04-001-1A, BI), 1% penicillin/streptomycin (03-031-1B, BI).
(§4) The cells in the logarithmic phase were placed in 96-well plates (∼3000 cells/well) in a complete medium. After incubation overnight, the cells were exposed to the corresponding compounds or vehicle control at the indicated concentration for a further 72 h. Cell proliferation was evaluated using Cell Counting Kit 8 (CCK8, CK04, Dojindo Laboratories, Kumamoto, Japan). OD450 and OD650 were determined using a microplate reader. Absorbance rate (A) for each well was calculated as OD450 −OD650. […] Each IC50 value is expressed as mean ± SD. As is the absorbance rate of the test compound well, Ac is the absorbance rate of the well without either the cell or test compound, and Ab is the absorbance rate of the well with the cell and vehicle control.

HT-29 cells = assay: Antiproliferation CCK-8 assay, HT-29; type: cell-based; conditions: Homo sapiens; CCK-8, 72 h, HT-29 (BRAF^V600E); means of three independent experiments; read-out: Cellular IC50 HT-29
Experimental: as §3, §4

HDAC8 = target: T5, HDAC8 (Homo sapiens, UniProt Q9BY41); assay: HDAC8 fluorescent-based enzymatic activity assay; type: biochemical; conditions: for fold more potent than 14b against HDAC8: HDAC8 IC50 relative to 14b; for IC50: Supplementary Table 1, read-out: HDAC8 Enzymatic IC50
T5 construct: purchased BPS Bioscience
T5 sequence (Q9BY41 1-377): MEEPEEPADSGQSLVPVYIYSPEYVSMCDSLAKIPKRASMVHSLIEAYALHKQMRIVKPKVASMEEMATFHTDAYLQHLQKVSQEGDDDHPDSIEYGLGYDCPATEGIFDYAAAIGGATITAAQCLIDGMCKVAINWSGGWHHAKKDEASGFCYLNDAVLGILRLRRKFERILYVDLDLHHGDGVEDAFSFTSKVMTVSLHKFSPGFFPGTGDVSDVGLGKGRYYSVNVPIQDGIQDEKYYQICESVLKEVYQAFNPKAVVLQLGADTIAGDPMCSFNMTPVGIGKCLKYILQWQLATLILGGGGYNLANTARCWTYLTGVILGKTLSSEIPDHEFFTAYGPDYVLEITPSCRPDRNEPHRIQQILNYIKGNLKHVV
Experimental: as §2

[3] = system: Ac-histone H3, Ac-α-tubulin, p-ERK in HT-29 cells; assay: Western blot analysis of HDAC and RAF pathway in HT-29 cells; type: cell-based, human; conditions: 0.12-10 μM, 6 h
Experimental: (§5) FIGURE 3 Characterization of dual inhibition of HDAC and RAF pathway. Western blot analysis of 14b in HCT116 cells (A) and in HT-29 cells (B). Cells were treated with 0 μM, 0.12 μM, 0.37 μM, 1.1 μM, 3.3 μM, and 10 μM of drugs and incubated for 6 h. The cell lysis was subjected to Western blot analysis.
(§6) The cells were treated with various concentrations of 14b for 6 h. Then, the cells were lysed using 1×SDS sample lysis buffer (CST recommended) with protease and phosphatase inhibitors. Cell lysates were loaded and electrophoresed onto 8–12% SDS-PAGE gel, and then the separated proteins were transferred to a PVDF film. The film was blocked with 5% BSA (Sigma-Aldrich, St. Louis, MO, United States) in a TBS solution containing 0.5% Tween-20 for 4 h at room temperature, then incubated with the corresponding primary antibody (1:1000–1:200) overnight at 4°C. After washing with TBST, HRP-conjugated secondary antibody was incubated for 2 h. The protein signals were visualized by the ECL Western Blotting Detection Kit (Thermo Scientific, Grand Island, NY, United States), and detected with Amersham Imager 600 system (GE, Boston, MA, United States).

[4] = system: Ac-histone H3, Ac-α-tubulin, p-ERK in HCT116 cells; assay: Western blot analysis of HDAC and RAF pathway in HCT116 cells; type: cell-based, human; conditions: 0.12-10 μM, 6 h; for phosphorylation of ERK (p-ERK): HCT116 cells (wild-type BRAF, K-RAS G13D); for acetylated histone H3 (Ac-histone H3) / acetylated α-tubulin (Ac-α-tubulin): HCT116 cells
Experimental: as §5, §6

T1 sequence (P15056 whole entry V600E): as the sequence (P15056 whole entry) above, with V600E counted along it

IC50 (BRAF^V600E) | IC50 (BRAF (wild-type) [1]) | IC50 (HDAC1) | IC50 (HDAC6) | IC50 (HCT116 cells) | IC50 (HT-29 cells) | fold more potent than 14b against HDAC8 (HDAC8) | IC50 (HDAC8) | Structure (SMILES) | selectivity of BRAF^V600E over wild-type BRAF (BRAF (wild-type) [2]) | acetylated histone H3 (Ac-histone H3) [3] | acetylated α-tubulin (Ac-α-tubulin) [3] | phosphorylation of ERK (p-ERK) [3] | phosphorylation of ERK (p-ERK) [4] | acetylated histone H3 (Ac-histone H3) [4] | acetylated α-tubulin (Ac-α-tubulin) [4] | other results
0.00126 µM | 0.00286 µM | 0.474 µM | 0.101 µM | 2.06 µM | 0.11 µM | 4.8 fold | 0.623 µM | CC(C)(C)c1nc(-c2cccc(NS(=O)(=O)c3ccccc3)c2F)c(-c2ccnc(NCCCCCCC(=O)NO)n2)s1 [21c, 7-{[4-(2-(Tert-Butyl)-4-(2-Fluoro-3-(Phenylsulfonamido)Phenyl)Thiazol-5-yl)Pyrimidin-2-yl]Amino}-N-Hydroxyheptanamide] | about 2 fold |  |  |  |  |  |  | 
 |  |  |  |  |  |  |  | O=C(CCCCCCC(=O)Nc1ccccc1)NO [Vorinostat, vorinostat] |  | dose-dependently induced | dose-dependently induced | had little impact | had little impact | dose-dependently induced | dose-dependently induced | acetylated histone H3 (Ac-histone H3) ([3]; listed as vorinostat): upregulated; acetylated α-tubulin (Ac-α-tubulin) ([3]; listed as vorinostat): upregulated; acetylated histone H3 (Ac-histone H3) ([4]; listed as vorinostat): upregulated; acetylated α-tubulin (Ac-α-tubulin) ([4]; listed as vorinostat): upregulated
 |  |  |  | > 10 µM | 0.21 µM |  |  | CC(C)(C)c1nc(-c2cccc(NS(=O)(=O)c3c(F)cccc3F)c2F)c(-c2ccnc(N)n2)s1 [Dabrafenib, dabrafenib] |  | had little impact | had little impact | reduced | paradoxically induced | had little impact | had little impact | phosphorylation of ERK (p-ERK) ([3]; listed as dabrafenib): reduced the phosphorylation of ERK; phosphorylation of ERK (p-ERK) ([4]; listed as dabrafenib): causes paradoxical activation of ERK
0.00514 µM | 0.00386 µM | 0.0156 µM | 0.14 µM | 1.08 µM | 0.95 µM | 3.4 fold | 0.876 µM | O=C(CCCCCCNc1nccc(-c2sc(-c3ccccc3)nc2-c2cccc(NS(=O)(=O)c3c(F)cccc3F)c2F)n1)NO [14j, 7-{[4-(4-(3-(2,6-Difluorophenylsulfonamido)-2-Fluorophenyl)-2-Phenylthiazol-5-yl)Pyrimidin-2-yl]Amino}-N-Hydroxyheptanamide] | slightly more potent against wild-type BARF |  |  |  |  |  |  | 
